From patent US20210392892A1, “COMPOSITIONS COMPRISING PYRIDINE CARBOXYLATE HERBICIDES AND ACETYL COA CARBOXYLASE (ACCASE) INHIBITOR HERBICIDES” (Corteva Agriscience LLC, priority 2018, published 2021)

Experiments:
Experiment in all cases: Greenhouse postemergence herbicidal effect (visual injury)
Assay type in all cases: in vivo
[1] = system: BRSNW, Brassica napus (winter rape)
Text: (§1) Seeds of the desired test plant species were planted in a 90:10% v/v (volume/volume) mixture of PRO-MIX® BX (Premier Tech Horticulture, Quakertown, Pa., USA) and PROFILE® GREENS GRADE™ (Profile Products LLC, Buffalo Grove, Ill., USA) planting mixture, which typically has a pH of 5.2 to 6.2 and an organic matter content of at least 50 percent, in plastic pots with a surface area of 103.2 square centimeters (cm^2). In some aspects, to help ensure good germination and healthy plants, a fungicide treatment and/or other chemical or physical treatment was applied. The plants were grown for 7-36 days (d) in a greenhouse with an approximate 14-hour (h) photoperiod which was maintained at about 23° C. during the day and 22° C. during the night. Nutrients and water were added on a regular basis and supplemental lighting was provided with overhead metal halide 1000-Watt lamps as necessary. The plants were employed for testing when they reached the second or third true leaf stage.
(§2) Emulsifiable concentrates of each of each pyridine carboxylate herbicide (Compound A or Compound B) were prepared at 100 grams acid equivalent per liter (g ae/L). The emulsifiable concentrates also included a safener, cloquintocet-mexyl, at 120 grams active ingredient per liter (g ai/L), unless otherwise noted below. An aliquot of each emulsifiable concentrate was placed in a 25 mL glass vial and diluted with an aqueous mixture of 1.25% (v/v) ACTIROB® B esterified rapeseed oil (Bayer Crop Science, Research Triangle Park, N.C., USA) or MSO® Concentrate with LECI-TECH® methylated soybean oil (Loveland Products, Loveland, Colo., USA) to obtain concentrated stock solutions at the highest application rate for each herbicide, based upon a 12 milliliter (mL) application volume at a rate of 187 liters per hectare (L/ha). The concentrated stock solutions were further diluted with an aqueous mixture of 1.25% v/v ACTIROB® B or MSO® Concentrate with LECI-TECH® to obtain stock solutions at reduced application rates for each herbicide. Spray solutions of the herbicide combinations (Compound A or Compound B plus ACCase inhibitor herbicide) were prepared by adding weighed amounts or aliquots of the ACCase inhibitor herbicide to the stock solutions of Compound A or Compound B to form 12-mL spray solutions in two-way combinations.
(§3) The spray solutions were applied to the plant material with an overhead Mandel track sprayer equipped with 8002E nozzles calibrated to deliver 187 L/ha over an application area of 0.503 square meters (m^2) at a spray height of 18 inches (43 centimeters (cm)) above the average plant canopy. Control plants were sprayed in the same manner with the solvent blank. All pyridine carboxylate herbicide (component a) application rates are given as “g ae/ha” and all ACCase inhibitor herbicide (component b) application rates are given as “g ai/ha.”
(§4) The treated plants and control plants were placed in a greenhouse as described above and watered by sub-irrigation to prevent wash-off of the test compounds. After 20-22 d, the condition of the test plants as compared with that of the control plants was determined visually and scored on a scale of 0 to 100 percent where 0 corresponds to no injury and 100 corresponds to complete kill.

[2] = system: LOLMG, Lolium multiflorum subsp. gaudini (annual ryegrass); conditions: with cloquintocet-mexyl
Text: as §1, §2, §3, §4

[3] = system: CYPDI, Cyperus difformis (small-flower flatsedge); conditions: with cloquintocet-mexyl
Text: as §1, §2, §3, §4

[4] = system: POLCO, Polygonum convolvulus (wild buckwheat)
Text: as §1, §2, §3, §4

[5] = system: ORYSA, Oryza sativa (common rice); conditions: with cloquintocet-mexyl
Text: as §1, §2, §3, §4

[6] = system: VIOTR, Viola tricolor (wild pansy)
Text: as §1, §2, §3, §4

[7] = 7.5 g ae/ha, without cloquintocet-mexyl
[8] = 10 g ae/ha, without cloquintocet-mexyl

N#CCOC(=O)c1nc(-c2ccc3cc[nH]c3c2F)c(F)c(N)c1Cl [Compound A, cyanomethyl 4-amino-3-chloro-5-fluoro-6-(7-fluoro-1H-indol-6-yl)pyridine-2-carboxylate]
% visual injury, Obs [1, 7]: 50% | % visual injury, Obs [1, 8]: 65% | % visual injury, Obs ([1]; BRSNW, Compound A 7.5 g/ha, Fluazifop 0 g/ha): 50% | % visual injury, Obs ([1]; BRSNW, Compound A 10 g/ha, Fluazifop 0 g/ha): 65% | % visual injury, Obs ([2]; 7.5 g ae/ha): 0% | % visual injury, Obs ([2]; 10 g ae/ha): 3% | % visual injury, Obs ([3]; 7.5 g ae/ha): 60% | % visual injury, Obs ([3]; 10 g ae/ha): 72% | % visual injury, Obs [4, 7]: 80% | % visual injury, Obs [4, 8]: 78% | % visual injury, Obs ([4]; POLCO, Compound A 7.5 g/ha, Fluazifop 0 g/ha): 80% | % visual injury, Obs ([4]; POLCO, Compound A 10 g/ha, Fluazifop 0 g/ha): 78% | % visual injury, Obs ([5]; 7.5 g ae/ha): 0% | % visual injury, Obs ([5]; 10 g ae/ha): 0% | % visual injury, Obs [6, 7]: 8% | % visual injury, Obs [6, 8]: 15% | % visual injury, Obs ([6]; VIOTR, Compound A 7.5 g/ha, Fluazifop 0 g/ha): 8% | % visual injury, Obs ([6]; VIOTR, Compound A 10 g/ha, Fluazifop 0 g/ha): 15%
